{"source": "paper PMC11707430", "about": "“Novel antibiotics against Staphylococcus aureus without detectable resistance by targeting proton motive force and FtsH” (MedComm, 2025)", "key": {"[1]": {"test_system": "A. baumannii", "test": "MIC determination by microbroth dilution", "format": "cell-based", "conditions": "Acinetobacter baumannii, ATCC19606; ATCC 19606", "protocol": "(§1) Minimal inhibitory concentration (MIC) determination. The detection of MIC was performed by the microbroth dilution method with reference to the previously report by Wang et al^2. Briefly, the fresh bacterial suspension was adjusted to a McF standard equivalent of 0.5 (~1.5 × 10^8 CFU/mL) and then 100-fold diluted with MH broth. Fifty microliters of bacterial suspension with equal volume of serially diluted compounds (1-128 µg/mL) were added into a 96-well cell plate (Corning Costar, the United States) and incubated at 37°C for 16-18 h. The bacterial suspension without compounds was used as a negative control. The lowest concentration that inhibited visible bacterial growth was considered as the value of MIC."}, "[2]": {"test_system": "E. coli", "test": "MIC determination by microbroth dilution", "format": "cell-based", "conditions": "Escherichia coli, ATCC25922; ATCC 25922", "protocol": "as §1"}, "[3]": {"test_system": "E. faecalis", "test": "MIC determination by microbroth dilution", "format": "cell-based", "conditions": "Enterococcus faecalis", "protocol": "as §1"}, "[4]": {"test_system": "E. faecium", "test": "MIC determination by microbroth dilution", "format": "cell-based", "conditions": "Enterococcus faecium", "protocol": "as §1"}, "[5]": {"test_system": "K. pneumoniae", "test": "MIC determination by microbroth dilution", "format": "cell-based", "conditions": "Klebsiella pneumoniae, ATCC700603; ATCC 700603", "protocol": "as §1"}, "[6]": {"test_system": "P. aeruginosa", "test": "MIC determination by microbroth dilution", "format": "cell-based", "conditions": "Pseudomonas aeruginosa, PAO1", "protocol": "as §1"}, "[7]": {"test_system": "S. epidermidis", "test": "MIC determination by microbroth dilution", "format": "cell-based", "conditions": "Staphylococcus epidermidis", "protocol": "as §1"}, "[8]": {"test_system": "Human RBCs", "test": "Red blood cell (RBC) lysis assay", "format": "cell-based", "conditions": "1 h", "protocol": "Red blood cell (RBC) lysis assay. Human RBCs (Hemo Pharmaceutical and Biological Co.) were suspended in 1× PBS and diluted to a final concentration of 4% (vol/vol). The RBCs suspension was then incubated with serially diluted compounds at 37°C for 1h. Then, the supernatant was collected by centrifugation and the absorbance at 570 nm […]) was measured. Triton X-100 (0.1%, vol/vol) and DMSO (1%, vol/vol) were served as positive and negative controls, respectively^16."}, "[9]": {"target": "T1, hERG (Homo sapiens, UniProt Q12809)", "T1 construct": "expressed in transfected cells; host or cells: HEK293", "T1 sequence (Q12809 whole entry)": "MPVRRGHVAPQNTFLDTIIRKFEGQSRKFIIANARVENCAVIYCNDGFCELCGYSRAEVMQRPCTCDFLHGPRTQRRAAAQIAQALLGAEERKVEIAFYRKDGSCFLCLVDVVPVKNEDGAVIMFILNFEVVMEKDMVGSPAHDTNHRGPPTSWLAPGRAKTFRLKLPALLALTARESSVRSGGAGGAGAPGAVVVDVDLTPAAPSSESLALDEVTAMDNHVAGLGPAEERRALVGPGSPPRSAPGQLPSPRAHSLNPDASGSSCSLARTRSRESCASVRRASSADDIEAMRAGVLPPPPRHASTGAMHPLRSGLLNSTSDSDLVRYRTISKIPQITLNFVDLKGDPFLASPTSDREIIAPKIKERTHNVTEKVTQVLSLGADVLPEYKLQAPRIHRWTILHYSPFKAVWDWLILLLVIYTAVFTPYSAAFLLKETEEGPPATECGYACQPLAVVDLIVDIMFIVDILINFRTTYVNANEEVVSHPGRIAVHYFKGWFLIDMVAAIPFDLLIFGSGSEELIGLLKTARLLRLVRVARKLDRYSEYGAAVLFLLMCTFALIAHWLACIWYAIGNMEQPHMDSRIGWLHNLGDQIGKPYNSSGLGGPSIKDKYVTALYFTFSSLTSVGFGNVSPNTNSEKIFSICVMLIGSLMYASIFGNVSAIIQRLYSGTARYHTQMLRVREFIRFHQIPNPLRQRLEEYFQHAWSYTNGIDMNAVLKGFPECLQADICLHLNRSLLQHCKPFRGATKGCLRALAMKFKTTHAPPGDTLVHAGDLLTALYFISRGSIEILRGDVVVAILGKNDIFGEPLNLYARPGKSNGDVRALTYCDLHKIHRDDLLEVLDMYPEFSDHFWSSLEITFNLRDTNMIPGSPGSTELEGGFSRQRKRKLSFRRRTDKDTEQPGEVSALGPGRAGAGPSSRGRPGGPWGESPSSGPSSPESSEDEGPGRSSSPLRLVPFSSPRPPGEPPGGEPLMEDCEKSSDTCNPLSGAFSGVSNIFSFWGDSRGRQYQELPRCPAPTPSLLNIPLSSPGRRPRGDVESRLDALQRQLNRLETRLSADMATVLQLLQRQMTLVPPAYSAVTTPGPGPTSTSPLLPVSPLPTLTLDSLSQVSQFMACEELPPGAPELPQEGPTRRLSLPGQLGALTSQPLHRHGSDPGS", "test": "hERG patch clamp", "format": "cell-based", "conditions": "HEK293 cells expressing hERG channels, pH 7.4, hERG potassium channels", "experimental": "hERG. hERG channels expressed HEK293 cell line was cultured in DMEM at 37℃ with 10% FBS to ~70% of log phase. Then, the cells were washed with PBS and digested with trypsin. After incubation at 37 ℃ for 2-3 min, the cells were washed again and adjusted to ~ 2×10^3/mL. The patch clamp detection experiment was performed after the cells attached to the cell wall. The extracellular fluid was prepared as 137 mM NaCl,1 mM MgCl2‧6H2O, 4 mM KCl,1.8 mM CaCl2‧2H2O, 10 mM D-Glucose, 10 mM HEPES, pH=7.4. And the intracellular fluid was prepared as 140 mM KCl,10 mM EGTA, 5 mM MgCl2‧6H2O, 10 mM HEPES, 5 mM Mg-ATP, pH=7.2. The current data was collected by using Pathmaster software. And the peak current inhibition rate was calculated as: (1−Peak tail current compoundPeak tail current veℎicle). The concentration-effects were fitted by the Hill equation: I=Imax∙(1/［1+（C1/2/［C］）^h), where [C], C1/2, and h represented the drug concentration, half inhibitory concentration (IC50), Hill coefficient, respectively^19."}, "[10]": {"target": "FtsH (Staphylococcus aureus, UniProt Q2G0R0)", "sequence (Q2G0R0 entry or part of it)": "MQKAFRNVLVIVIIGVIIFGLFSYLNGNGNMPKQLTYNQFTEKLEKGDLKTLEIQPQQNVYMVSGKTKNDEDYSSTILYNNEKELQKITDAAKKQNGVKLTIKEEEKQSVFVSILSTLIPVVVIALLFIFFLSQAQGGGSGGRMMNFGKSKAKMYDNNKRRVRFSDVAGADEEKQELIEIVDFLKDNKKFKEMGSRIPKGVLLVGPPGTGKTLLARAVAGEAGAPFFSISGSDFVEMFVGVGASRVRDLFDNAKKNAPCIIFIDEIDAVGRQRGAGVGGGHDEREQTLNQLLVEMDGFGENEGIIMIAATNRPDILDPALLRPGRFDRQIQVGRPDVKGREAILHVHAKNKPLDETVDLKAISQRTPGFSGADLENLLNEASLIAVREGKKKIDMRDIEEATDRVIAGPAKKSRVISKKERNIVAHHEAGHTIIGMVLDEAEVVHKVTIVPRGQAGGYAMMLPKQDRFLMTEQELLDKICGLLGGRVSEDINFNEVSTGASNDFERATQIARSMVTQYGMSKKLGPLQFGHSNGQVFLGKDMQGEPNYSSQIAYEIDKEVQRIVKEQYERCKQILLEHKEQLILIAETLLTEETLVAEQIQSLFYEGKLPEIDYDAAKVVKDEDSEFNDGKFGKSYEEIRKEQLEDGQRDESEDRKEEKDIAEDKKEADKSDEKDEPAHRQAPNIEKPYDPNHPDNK", "test": "Surface plasmon resonance (SPR)", "format": "binding, S. aureus ATCC 43300", "conditions": "25 °C", "protocol": "Surface plasmon resonance (SPR). To detect the affinity between the small molecular compounds and FtsH, SPR analyses were performed on a multiple flow cell Biacore T200 instrument (Cytiva, the United States). Briefly, FtsH (35.5 µg/mL in 10 mM sodium acetate buffer, pH= 4.0) was covalently immobilized on a dextran matrix CM5 sensor chip surface in three different flow cells. The excessive active groups on the dextran matrix were blocked using 1 M ethanolamine at the velocity of 10 μL/min for 15 min. The uncoated reference flow cell on the fourth flow cell was prepared on the dextran matrix treated as described above but without any ligand. 1×PBS (pH 7.4) containing 2 mM KH2PO4, 137 mM NaCl, 10 mM Na2HPO4, 2.7 mM KCl and 5%DMSO was used as the running buffer. In the running buffer, a 2-fold serially diluted of compounds was passed over the ligand at a flow rate of 30 µL/min. The sensorgrams were recorded at 25 °C. The response units at the steady state were fitted to the Langmuir equation to yield the Kd values^35.\nProtein synthesis and purification. The primers in this study were designed according to the sequence of S. aureus ATCC 43300 genome published on NCBI. […] Finally, the target protein was detected by SDS-PAGE. […]"}, "[11]": {"test": "Liver microsomal metabolism analysis", "format": "in vitro ADME", "conditions": "human; liver microsomes in vitro", "protocol": "Liver microsomal metabolism analysis. Human liver microsome (20 mg protein/mL) was purchased from IPHASE (Beijing, China). One microliter of C218-0546 or STK848198 (200 μM) was incubated with 2 μL of liver microsome in the presence or absence of NADPH. Phenacetin (100 μM) was used as a positive control. After incubation at 37℃ for 0, 15, 30, 45, 60 and 90 min, respectively, the samples were cooled on ice and added with 500 μL of stop solution. The remained compounds were quantified with a LC-MS (Triple Quad™ 5500, AB SCIEX, USA)."}, "[12]": {"test": "Plasma protein binding rate", "format": "in vitro ADME", "conditions": "human plasma", "protocol": "Plasma protein binding rate calculation. Human plasma was purchased from IPHASE (Beijing, China). C218-0546 or STK848198 was added into human plasma to a final concentration of 0.5, 2 and 5 μg/mL, respectively. Warfarin sodium and PBS was used as positive control and blank control, respectively. The samples were added to the upper side of the dialysis membrane (IPHASE, Beijing, China) and PBS was added to its lower side. After incubation at room temperature for 12h, the concentration of C218-0546 and STK848198 at the both sides were detected by the LC-MS. The plasma protein binding rate (%) was calculated as: (1-Cf/Cp) × 100%. Cf, concentration of free compounds (lower side). Cp, plasma protein binding compounds (upper side)."}, "[13]": {"test_system": "S. aureus ATCC 43300", "test": "Periprosthetic joint infection (PJI) model", "format": "in vivo, ICR mice", "conditions": "i.p."}}}
{"smiles": "Cc1nc2c(-c3ccc(Cl)cc3)cnn2c(O)c1Cc1ccccc1", "note": "[STK848198]", "values": [{"measurement": "MIC", "setting": "[1]", "value": "> 32", "unit": "µg/mL"}, {"measurement": "MIC", "setting": "[2]", "value": "> 32", "unit": "µg/mL"}, {"measurement": "MIC", "setting": "[3]; ATCC29212, ATCC 29212", "value": 4, "unit": "µg/mL"}, {"measurement": "MIC", "setting": "[3]; ATCC51299, ATCC 51299, vancomycin resistant strain", "value": 4, "unit": "µg/mL"}, {"measurement": "MIC", "setting": "[4]; ATCC19434, ATCC 19434", "value": 8, "unit": "µg/mL"}, {"measurement": "MIC", "setting": "[4]; U101, vancomycin resistant strain", "value": 4, "unit": "µg/mL"}, {"measurement": "MIC", "setting": "[5]", "value": "> 32", "unit": "µg/mL"}, {"measurement": "MIC", "setting": "[6]", "value": "> 32", "unit": "µg/mL"}, {"measurement": "MIC", "setting": "[7]; ATCC12228, ATCC 12228", "value": 1, "unit": "µg/mL"}, {"measurement": "MIC", "setting": "[7]; RP62A", "value": 1, "unit": "µg/mL"}, {"measurement": "hemolysis activity", "setting": "[8]", "value": "No hemolysis activity"}, {"measurement": "IC50", "setting": "[9]", "value": "> 30", "unit": "µM"}, {"measurement": "Kd", "setting": "[10]", "value": 31, "unit": "µM"}, {"measurement": "half-life", "setting": "[11]", "value": 43.6, "unit": "min"}, {"measurement": "plasma protein binding rate", "setting": "[12]", "value": "high"}, {"measurement": "bacterial viable cell loads in infected joint", "setting": "[13]; day 5, AMP 25 mg/kg combined with STK848198 30 mg/kg", "value": "effectively reduce the bacterial viable cell loads"}, {"measurement": "bacterial loads in the joint and its surrounding tissue", "setting": "[13]; day 7, alone or in combination", "value": "reduce the bacterial loads"}]}
